Measurements reported in patent US11713470B2, “Targeted gene therapies for pain and other neuro-related disorders” (University of Pittsburgh—Of the Commonwealth System of …, priority 2017, dated 2023).

Key:
[1] = molecular target: T1, PSAM-GlyR in CCK^+ dorsal horn neurons (Homo sapiens, UniProt P23415+P36544, L141F); format: in vivo, mouse; settings: CCK^Cre mice with PSAM-GlyR
T1 construct: plasmid from Addgene (Sternson); host or cells: mouse dorsal horn neurons transduced with Cre-dependent AAV2/8 (Tlx3^Cre, CCK^Cre or Calr^Cre mice)
T1 sequence (P36544+P23415 fused P36544:L141F): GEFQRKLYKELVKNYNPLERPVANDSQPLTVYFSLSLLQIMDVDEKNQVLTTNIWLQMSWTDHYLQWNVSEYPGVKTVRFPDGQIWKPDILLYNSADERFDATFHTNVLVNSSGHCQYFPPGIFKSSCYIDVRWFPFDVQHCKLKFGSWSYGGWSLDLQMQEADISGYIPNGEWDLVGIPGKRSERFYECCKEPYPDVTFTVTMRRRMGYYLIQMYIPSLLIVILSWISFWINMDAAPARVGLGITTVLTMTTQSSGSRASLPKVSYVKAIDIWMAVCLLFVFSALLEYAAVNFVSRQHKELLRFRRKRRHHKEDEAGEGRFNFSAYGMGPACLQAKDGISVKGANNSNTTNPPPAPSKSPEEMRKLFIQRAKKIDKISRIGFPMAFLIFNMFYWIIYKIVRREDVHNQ
Source text: (§1) Methods. Animals: All animals were kept on a standard 12:12 light/dark cycle in micro-isolator caging racks (Allentown Caging) with food and water provided ad libitum. Mouse strains obtained from Jackson Laboratories include C57Bl/6J (JAX #000664), Calr^Cre (JAX #010774) and CCK^Cre (JAX #012706). Adeno-associated viruses (AAV2/8) used in these experiments: hSyn-Flex-rev-PSAM^L141F-GlyR-IRES-eGFP (7^12 vg/ml) and hSyn-Flex-rev-PSAM^L141F,Y115F-GlyR-IRES-eGFP (1.7^13 vg/ml) were custom made by UNC Vector core based on plasmid material developed by Scott Sternson and provided by Addgene. The hSyn-Flex-rev-PSAM^L141F-GlyR-IRES-eGFP (7^12 vg/ml) was used in all experiments except FIG. 8 (e,f). For these experiments, hSyn-Flex-rev-PSAM^L141F,Y115F-GlyR-IRES-eGFP (1.7^13 vg/ml) was used. Methods including: intra-spinal virus injections, paw withdrawal threshold to von Frey filaments, to cotton swab, Hargreaves, pinprick and acute pain behaviors licking, guarding, flicking are all as previously described (Peirs, C. et al. Dorsal Horn Circuits for Persistent Mechanical Pain. Neuron 87, 797-812 (2015); Seal, R. P. et al. Injury-induced mechanical hypersensitivity requires C-low threshold mechanoreceptors. Nature 462, 651-655, (2009)); For paw withdrawal threshold to pressure: mice were lightly restrained by hand such that their rear legs were allowed to freely hang. Using a Pressure Application Measurement device (Ugo Basile) the hind paw was grasped between the experimenter's forefinger and thumb (with pressure transducer on the thumb), and force was slowly applied to the paw until the mouse struggled or flicked its limb (paw withdrawal threshold, PWT). The final force in grams was recorded. Each mouse was tested on the left and right paw for three trials with a ten-minute inter-trial interval between applications, and the three results averaged for each paw. Injury Models including incision, complete Freund's adjuvant, spared nerve injury tibial and sural models, carrageenan, methylglyoxal and multi-dose streptozotocin are as previously described (Peirs, C. et al. Dorsal Horn Circuits for Persistent Mechanical Pain. Neuron 87, 797-812 (2015); Seal, R. P. et al. Injury-induced mechanical hypersensitivity requires C-low threshold mechanoreceptors. Nature 462, 651-655, (2009); Decosterd, I. and Woolf, C. J. Spared nerve injury: an animal model of persistent peripheral neuropathic pain. Pain 87, 149-158 (2000); Bierhaus, A. et al. Methylglyoxal modification of Nav1.8 facilitates nociceptive neuron firing and causes hyperalgesia in diabetic neuropathy. Nat Med 18, 926-933 (2012); Cavanaugh, D. J. et al. Distinct subsets of unmyelinated primary sensory fibers mediate behavioral responses to noxious thermal and mechanical stimuli. Proc Natl Acad Sci USA 106, 9075-9080, (2009)). Chemogenetic Activation of PSAM-GlyR Receptor: Behavior thresholds were performed as described above in AAV8-hSyn-DIO-PSAM-GlyR-IRES-GFP injected mice. PSEM^89S at 30 mg/kg was injected intraperitoneally 15 minutes prior to testing. Immunohistochemistry was performed as previously described (Peirs, C. et al. Dorsal Horn Circuits for Persistent Mechanical Pain. Neuron 87, 797-812 (2015); Seal, R. P. et al. Injury-induced mechanical hypersensitivity requires C-low threshold mechanoreceptors. Nature 462, 651-655 (2009)). α-bungarotoxin conjugated to Alexa-647 (1:1000; ThermoFisher B35450), α-bungarotoxin conjugated to Alexa-488 (1:1000; ThermoFisher B13422). Imaging: Spinal cord sections were imaged with a confocal laser-scanning microscope (Nikon A1R) and Nikon Elements software using 405-, 488-, 561- and 640 nm excitation laser light. In order to suppress emission crosstalk, the microscope was configured to perform all scanning in sequential mode. Z-series were scanned at 20× magnification with an oil immersion lens and a z-step of 5.0 μm. Quantification and Statistical Analysis: all data are reported as mean±SEM. For acute behaviors, a two-tailed Student's t-test was used. […]

[2] = molecular target: T2, PSAM-GlyR in calretinin neurons in the dorsal horn lamina II (Homo sapiens, UniProt P23415+P36544, L141F); format: in vivo, mouse; settings: Calr^Cre mice with PSAM-GlyR, 30 mg/kg i.p.
T2 construct: plasmid from Addgene (Sternson); host or cells: mouse dorsal horn neurons transduced with Cre-dependent AAV2/8 (Tlx3^Cre, CCK^Cre or Calr^Cre mice)
T2 sequence (P36544+P23415 fused P36544:L141F): as above
Source text: as §1

## COc1ccc(OC)c(C(=O)NC2CN3CCC2CC3)c1 (stereo not drawn) [PSEM^89S]
[1]
  performance on the rotarod: not altered
[1]; 30 mg/kg i.p., p=0.2192
  baseline von Frey threshold: no effect
[1]; p=0.5983
  baseline pinprick: no effect
[1]; p=0.7293
  baseline response to cotton swab: no effect
[1]; p=0.7450
  baseline pressure with calibrated calipers: no effect
[1]; p=0.9746
  baseline Hargreaves latencies: unchanged
[2]; p=0.3988
  baseline ipsilateral von Frey threshold: no effect
[2]; p=0.6125
  baseline Hargreaves latencies: unchanged
[2]; p=0.7689
  baseline pinprick: no effect
[2]; p=0.7963
  baseline response to cotton swab: no effect
[2]; p=0.8350
  baseline pressure with calibrated calipers: no effect
[2]; p=0.9346
  baseline sticky tape: no effect
